Structures can show the parent of a compound that is named as a salt. Where two headings read alike, the source gives them in different places.
Experiments:
Assay type in all cases: cell-based
[1] = tested on: MCF-7 breast cancer cells; experiment: SRB cell viability assay, MCF-7; conditions: Homo sapiens, MCF7, MCF-7, Breast (ER+ PR+)
Method: (§1) The effect of OSC inhibition was evaluated in additional cancer cell lines as well. Cancer cell lines may be purchased from ATCC (Manassas, Va.). The SRB assay has been employed for determination of the inhibitory effects of RO 48-8071 on growth of different cancer cells. Cells were seeded into 96-well plates and incubated overnight at 37° C. with 5% CO2. The culture medium was removed after 24 hours, and cells were washed with DMEM/F12 medium and then treated with various concentrations of RO 48-8071 in 5% FBS culture medium for 24 and 48 hours. Surviving or adherent cells were fixed in situ by withdrawing the growth medium, adding 100 μl PBS and 100 μl 50% trichloroacetic acid and then incubating at 4° C. for one hour. Cells were washed with ice-cold water, dried at room temperature (RT), and then stained with 50 μl 4% SRB for eight minutes at RT. Unbound dye was removed by washing with cold 1% acetic acid for five times, and plates were dried at RT. Bound stain was solubilized with 150 μl 10 mM Tris buffer and absorbance of samples was read at 520 nm with a SpecTRA MAX 190 microplate reader (Molecular Devices, Sunnyvale, Calif.). Six wells were used for each concentration, and each experiment was performed two to three times.
Effect of RO 48-8071 on breast cancer cell line MCF-7 viability. […]

[2] = tested on: HCC-1428 breast cancer cells; experiment: SRB cell viability assay, HCC-1428; conditions: Homo sapiens, HCC1428, HCC-1428, Breast (ER+ PR+)
Method: as §1
Effect of RO 48-8071 on estrogen, progesterone, and HER-2/neu receptors positive breast cancer cell line HCC-1428 and ZR-75 viability. […]

[3] = tested on: H69AR lung cancer cells; experiment: SRB cell viability assay, H69AR; conditions: Homo sapiens
Method: as §1
Effect of RO 48-8071 on lung cancer cell line H69AR viability. […] The culture mediums employed 20% FBS RPMI-1640 for culture and 10% FBS RPMI-1640 for treatment.

[4] = tested on: OV-CAR-3 ovarian cancer cells; experiment: SRB cell viability assay, OV-CAR-3; conditions: Homo sapiens, OVCAR-3, OV-CAR-3, Ovary
Method: as §1
Effect of RO 48-8071 on ovarian cancer cell line OVCAR-3 viability. […]

[5] = tested on: BT-474, MCF-7, BT-20 and MDA-231 human breast cancer cells; experiment: Annexin V / PI apoptosis assay, breast cancer cells; conditions: 24 hours
Text: Apoptosis is a normal physiologic process which occurs during embryonic development as well as in maintenance of tissue homeostasis. The apoptotic program is characterized by certain morphologic features, including loss of plasma membrane asymmetry and attachment, condensation of the cytoplasm and nucleus, and internucleosomal cleavage of DNA. […]. In apoptotic cells, the membrane phospholipid phosphatidylserine (PS) is translocated from the inner to the outer leaflet of the plasma membrane, thereby exposing PS to the external cellular environment. Annexin V is a 35-36 kDa Ca2+ dependent phospholipid-binding protein that has a high affinity for PS, and binds to cells with exposed PS. Annexin V may be conjugated to fluorochromes including FITC. […]
FITC Annexin V staining precedes the loss of membrane integrity which accompanies the latest stages of cell death resulting from either apoptotic or necrotic processes. […] However, when apoptosis is measured over time, cells can be often tracked from FITC Annexin V and PI negative (viable, or no measurable apoptosis), to FITC Annexin V positive and PI negative (early apoptosis, membrane integrity is present) and finally to FITC Annexin V and PI positive (end stage apoptosis and death). […]

[6] = 24 hours, read-out: IC50 (μM) (24 hours)
[7] = 48 hours, read-out: IC50 (μM) (48 hours)

## C=CCN(C)CCCCCCOc1ccc(C(=O)c2ccc(Br)cc2)c(F)c1 [Ro 48-8071, 4′-[6-(Allylmethylamino)hexyloxy]-4-bromo-2′-fluorobenzophenone fumarate]
[1]; [6]
  IC50: 12.3 ± 0.585 µM
[1]; [7]
  IC50: 6.33 ± 0.344 µM
[2]; [6]
  IC50: 14.6 ± 0.417 µM
[2]; [7]
  IC50: 11.6 ± 0.336 µM
[3]; [6]
  IC50: 10.8 ± 0.609 µM
[3]; [7]
  IC50: 8.11 ± 0.355 µM
[4]; [6]
  IC50: 20.5 ± 0.325 µM
[4]; [7]
  IC50: 11.3 ± 0.33 µM
[5]
  apoptosis and cell death (annexin V / PI positive cells): Induces Apoptosis and Cell Death
